Patent publication US7947690B2, “Pyrimidine derivative condensed with a non-aromatic ring” (Astellas Pharma Inc., priority 2004, dated 2011)
Counter-ions that a name gives are not always drawn.

These compounds were tested on normal mice (assay: Oral glucose tolerance test on normal mouse). Details: ICR mice, nateglinide 10 mg/kg orally 30 minutes before glucose loading; at 30 minutes after glucose loading, relative to control group.
Type: in vivo
Experimental: (2) Oral Glucose Tolerance Test on Normal Mouse
In this assay, preventive activities of test compounds against hyperglycemia following glucose loading were examined using normal mice and nateglinide, a commercially available oral anti-hyperglycemic agent, as a reference compound. The assay procedure is given below.
ICR mice (male, six weeks old) that had been preliminary bred for one week were fasted for 18 to 20 hours to use as test animals. Each test compound was dissolved in 0.5% methylcellulose solution and orally administered at 3 mg/kg (10 mg/kg for nateglinide) before glucose loading. Timing to administer the test compound was selected to be optimal for each test compound, which was 10 minutes before glucose loading for the compounds of the present invention or 30 minutes before glucose loading for nateglinide, which was a reference compound. The hypoglycemic rate (%) at 30 minutes after glucose loading was measured relative to the control group.

With CC(C)[C@H]1CC[C@H](C(=O)N[C@H](Cc2ccccc2)C(=O)O)CC1 [Nateglinide, nateglinide] the “Hypoglycemic rate, %” value was 26%.

These compounds were tested on MIN6B1 cell (assay: Assay for promoting activity on insulin secretion). Details: 10 μM test compound in KRB-HEPES with 16.8 mM glucose, 37° C., 22 minutes; relative value, insulin concentration for only DMSO = 100%.
Type: cell-based, mouse
Experimental: (1) Assay for Promoting Activity on Insulin Secretion
In this assay, promoting activities on insulin secretion of the test compounds were studied using MIN6B1 cell, which was a strain of mouse pancreatic β-cells, and glibenclamide, which was a commercially available insulin secretion secretagogue, as a reference compound. The assay procedure is given below.
MIN6B1 cells were seeded on a 48-well plate at a concentration of 1×10^5 cells/well (0.25 ml) (The medium was prepared by adding FCS (fetal calf serum) to DMEM (Dulbecco's Modified Eagle Medium) containing 25 mM glucose such that the FCS concentration became 10%). After two days, the medium was suctioned by an aspirator, each well was Washed four times with 0.2 ml of KRB-HEPES buffer (Krebs-Ringer-bicarbonate-N-2-hydroxylethylpiperazine-N′-2-ethanesulfonic acid; 130 mM NaCl, 4.7 mM KCl, 1.2 mM KH2PO4, 1.2 mM MgCl2.6H2O, 0.25 mM CaCl2.2H2O, 2.5 mM NaHCO3, 0.5% BSA, and 10 mM N-2-hydroxyethylpiperazine-N′-2-ethanesulfonic acid (pH 7.4)) containing 2.8 mM glucose warmed to 37° C., 0.2 ml of said buffer was again added, and the cells were incubated at 37° C. for 30 to 60 minutes. After the buffer was suctioned by an aspirator, 0.25 ml of a solution containing 10 μM of each test compound in KRB-HEPES containing 16.8 mM glucose was added to each well, and the cells were incubated at 37° C. for 22 minutes. The samples were pipetted and diluted by 25 to 51 times, and the insulin concentrations were analyzed using an insulin assay kit (Rat Insulin [^125I] Biotrak Assay System with Magnetic Separation; Amersham Bioscience K.K.). The test compounds were dissolved in 100% DMSO, and were added at the final concentration of 0.1%. The activity was expressed as a relative value, provided that insulin concentration for only DMSO was 100%.

Going from O=C(CO)NCC1CCN(c2nc(-c3cc(F)c(Cl)cc3F)nc3c2CS(=O)(=O)C3)CC1 [Example 331] to O=S1(=O)Cc2nc(-c3cc(F)c(Cl)cc3F)nc(N3CCC(O)(CCCO)CC3)c2C1 [Example 272, 1-[2-(4-chloro-2,5-difluorophenyl)-6,6-dioidxo-5,7-dihydrothieno[3,4-d]pyrimidin-4-yl]-4-(3-hydroxypropyl)piperidin-4-ol], the “Promotion activity on insulin secretion, %” value rises from 308% to 322%.

Same assay, conditions: Mus musculus, 22 min, 10 μM test compound in KRB-HEPES with 16.8 mM glucose, 37° C., relative value, insulin concentration for only DMSO = 100%, read-out: Promotion activity on insulin secretion, %

Compared with COc1ccc(Cl)cc1C(=O)NCCc1ccc(S(=O)(=O)NC(=O)NC2CCCCC2)cc1 [Glibenclamide, glibenclamide, reference compound], O=C(O)CCNC1CCN(c2nc(-c3cc(F)c(Cl)cc3F)nc3c2CS(=O)(=O)C3)CC1 [Example 288, 3-({1-[2-(4-chloro-2,5-difluorophenyl)-6,6-dioxido-5,7-dihydrothieno[3,4-d]pyrimidin-4-yl]piperidin-4-yl}amino)propionic acid] is higher in activity at 10 µM: 122% for the first, 253% for the second.

Going from O=S1(=O)Cc2nc(-c3cc(F)c(Cl)cc3F)nc(N3CCC(NCCCO)CC3)c2C1 [Example 287, 3-({1-[2-(4-chloro-2,5-difluorophenyl)-6,6-dioxido-5,7-dihydrothieno[3,4-d]pyrimidin-4-yl]piperidin-4-yl}amino)propan-1-ol] to NC(=O)CCC1CCN(c2nc(-c3cc(F)c(Cl)cc3F)nc3c2CS(=O)(=O)C3)CC1 [Example 283, 3-{1-[2-(4-chloro-2,5-difluorophenyl)-6,6-dioxido-5,7-dihydrothieno[3,4-d]pyrimidin-4-yl]piperidin-4-yl}propanamide], the activity at 10 µM rises from 208% to 375%.

Compared with NC(=O)CCN1CCN(c2nc(-c3cc(F)c(Cl)cc3F)nc3c2CS(=O)(=O)C3)CC1 [Example 269, 3-{4-[2-(4-chloro-2,5-difluorophenyl)-6,6-dioxido-5,7-dihydrothieno[3,4-d]pyrimidin-4-yl]piperazin-1-yl}propanamide], O=C(O)CCCC1CCN(c2nc(-c3cc(F)c(Cl)cc3F)nc3c2CS(=O)(=O)C3)CC1 [Example 291, 4-{1-[2-(4-chloro-2,5-difluorophenyl)-6,6-dioxido-5,7-dihydrothieno[3,4-d]pyrimidin-4-yl]piperidin-4-yl}butyric acid] is higher in activity at 10 µM: 212% for the first, 269% for the second.

First: C[C@@H]1CCCN(c2nc(-c3cc(F)c(Cl)cc3F)nc3c2CS(=O)(=O)C3)C1 [Example 1, (R)-2-(4-chloro-2,5-difluorophenyl)-4-(3-methylpiperidin-1-yl)-5,7-dihydrothieno[3,4-d]pyrimidine 6,6-dioxide hydrochloride]
Second: O=C(O)CCCC1CCN(c2nc(C3CCCC3)nc3c2CS(=O)(=O)C3)CC1 [Example 407, 4-[1-(2-cyclopentyl-6,6-dioxido-5,7-dihydrothieno[3,4-d]pyrimidin-4-yl)piperidin-4-yl]butyric acid]
The activity at 10 µM of the first is higher: 355% for the first, 325% for the second.
